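Following 48 hours of exposure in 96-well plates, responses at five concentrations were used to interpolate endpoints linearly. GI50 = concentration required for 50% inhibition of growth. TGI is the concentration that stops growth completely.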
Columns and labels:
Test in all cases: NCI-60 cell line screen, 48 h
786-0 renal = system: 786-0 renal
A498 renal = system: A498 renal
A549 NSCLC = system: A549 NSCLC
ACHN renal = system: ACHN renal
BT-549 breast = system: BT-549 breast
CAKI-1 renal = system: CAKI-1 renal
CCRF-CEM leukemia = system: CCRF-CEM leukemia
COLO 205 colon = system: COLO 205 colon
DU-145 prostate = system: DU-145 prostate
EKVX NSCLC = system: EKVX NSCLC
HCT-116 colon = system: HCT-116 colon
HCT-15 colon = system: HCT-15 colon
HL-60(TB) leukemia = system: HL-60(TB) leukemia
HOP-62 NSCLC = system: HOP-62 NSCLC
HOP-92 NSCLC = system: HOP-92 NSCLC
HT29 colon = system: HT29 colon
IGROV1 ovarian = system: IGROV1 ovarian
K-562 leukemia = system: K-562 leukemia
KM12 colon = system: KM12 colon
LOX IMVI melanoma = system: LOX IMVI melanoma
M14 melanoma = system: M14 melanoma
MALME-3M melanoma = system: MALME-3M melanoma
MCF7 breast = system: MCF7 breast
MDA-MB-231 breast = system: MDA-MB-231 breast
MDA-MB-435 = system: MDA-MB-435
MDA-N = system: MDA-N
MOLT-4 leukemia = system: MOLT-4 leukemia
NCI-H226 lung = system: NCI-H226 lung
NCI-H23 lung = system: NCI-H23 lung
NCI-H460 lung = system: NCI-H460 lung
NCI-H522 lung = system: NCI-H522 lung
NCI/ADR-RES ovarian = system: NCI/ADR-RES ovarian
OVCAR-3 ovarian = system: OVCAR-3 ovarian
OVCAR-4 ovarian = system: OVCAR-4 ovarian
OVCAR-5 ovarian = system: OVCAR-5 ovarian
OVCAR-8 ovarian = system: OVCAR-8 ovarian
PC-3 prostate = system: PC-3 prostate
RXF 393 renal = system: RXF 393 renal
SF-268 CNS = system: SF-268 CNS
SF-295 CNS = system: SF-295 CNS
SF-539 CNS = system: SF-539 CNS
SK-MEL-2 melanoma = system: SK-MEL-2 melanoma
SK-MEL-28 melanoma = system: SK-MEL-28 melanoma
SK-MEL-5 melanoma = system: SK-MEL-5 melanoma
SK-OV-3 ovarian = system: SK-OV-3 ovarian
SN12C renal = system: SN12C renal
SNB-19 CNS = system: SNB-19 CNS
SNB-75 CNS = system: SNB-75 CNS
SW-620 colon = system: SW-620 colon
TK-10 renal = system: TK-10 renal
U251 CNS = system: U251 CNS
UACC-257 melanoma = system: UACC-257 melanoma
UO-31 renal = system: UO-31 renal
HCC-2998 colon = system: HCC-2998 colon
HS 578T breast = system: HS 578T breast
RPMI-8226 leukemia = system: RPMI-8226 leukemia
SR leukemia = system: SR leukemia
T-47D breast = system: T-47D breast
UACC-62 melanoma = system: UACC-62 melanoma

## CCN(CC)c1nnc(CCCCCCCCc2nnc(N(CC)CC)o2)o1
786-0 renal
  TGI: > 100000 nM
A498 renal
  TGI: > 100000 nM
A549 NSCLC
  TGI: > 100000 nM
ACHN renal
  TGI: > 100000 nM
BT-549 breast
  TGI: > 100000 nM
CAKI-1 renal
  TGI: > 100000 nM
CCRF-CEM leukemia
  TGI: > 100000 nM
COLO 205 colon
  TGI: > 100000 nM
DU-145 prostate
  TGI: > 100000 nM
EKVX NSCLC
  TGI: > 100000 nM
HCT-116 colon
  TGI: > 100000 nM
HCT-15 colon
  TGI: > 100000 nM
HL-60(TB) leukemia
  TGI: > 100000 nM
HOP-62 NSCLC
  TGI: > 100000 nM
HOP-92 NSCLC
  TGI: > 100000 nM
HT29 colon
  TGI: > 100000 nM
IGROV1 ovarian
  TGI: > 100000 nM
K-562 leukemia
  TGI: > 100000 nM
KM12 colon
  TGI: > 100000 nM
LOX IMVI melanoma
  TGI: > 100000 nM
M14 melanoma
  TGI: > 100000 nM
MALME-3M melanoma
  TGI: > 100000 nM
MCF7 breast
  TGI: > 100000 nM
MDA-MB-231 breast
  TGI: > 100000 nM
MDA-MB-435
  TGI: > 100000 nM
MDA-N
  TGI: > 100000 nM
MOLT-4 leukemia
  TGI: > 100000 nM
NCI-H226 lung
  TGI: > 100000 nM
NCI-H23 lung
  TGI: > 100000 nM
NCI-H460 lung
  TGI: > 100000 nM
NCI-H522 lung
  TGI: > 100000 nM
NCI/ADR-RES ovarian
  TGI: > 100000 nM
OVCAR-3 ovarian
  TGI: > 100000 nM
OVCAR-4 ovarian
  TGI: > 100000 nM
OVCAR-5 ovarian
  TGI: > 100000 nM
OVCAR-8 ovarian
  TGI: > 100000 nM
PC-3 prostate
  TGI: > 100000 nM
RXF 393 renal
  TGI: > 100000 nM
SF-268 CNS
  TGI: > 100000 nM
SF-295 CNS
  TGI: > 100000 nM
SF-539 CNS
  TGI: > 100000 nM
SK-MEL-2 melanoma
  TGI: > 100000 nM
SK-MEL-28 melanoma
  TGI: > 100000 nM
SK-MEL-5 melanoma
  TGI: > 100000 nM
SK-OV-3 ovarian
  TGI: > 100000 nM
SN12C renal
  TGI: > 100000 nM
SNB-19 CNS
  TGI: > 100000 nM
SNB-75 CNS
  TGI: > 100000 nM
SW-620 colon
  TGI: > 100000 nM
TK-10 renal
  TGI: > 100000 nM
U251 CNS
  TGI: > 100000 nM
UACC-257 melanoma
  TGI: > 100000 nM
UO-31 renal
  TGI: > 100000 nM

## Oc1c(-c2cc(C(F)(F)F)[nH]n2)cc(Cl)c(OCc2ccc(Cl)cc2)c1-c1ccc(Cl)c(C(F)(F)F)c1
786-0 renal
  GI50: 647 nM
  TGI: 2140 nM
A498 renal
  GI50: 99.6 nM
  TGI: 484 nM
A549 NSCLC
  GI50: 1240 nM
  TGI: 6390 nM
ACHN renal
  GI50: 593 nM
  TGI: 4860 nM
BT-549 breast
  GI50: 624 nM
  TGI: 2160 nM
CAKI-1 renal
  GI50: 514 nM
  TGI: 2920 nM
CCRF-CEM leukemia
  GI50: 192 nM
  TGI: 4770 nM
COLO 205 colon
  GI50: 867 nM
  TGI: 1790 nM
DU-145 prostate
  GI50: 1150 nM
  TGI: 6390 nM
EKVX NSCLC
  GI50: 795 nM
  TGI: 5560 nM
HCC-2998 colon
  GI50: 739 nM
  TGI: 4530 nM
HCT-116 colon
  GI50: 159 nM
  TGI: 705 nM
HCT-15 colon
  GI50: 153 nM
  TGI: 693 nM
HL-60(TB) leukemia
  GI50: 677 nM
  TGI: 3120 nM
HOP-62 NSCLC
  GI50: 766 nM
  TGI: 3040 nM
HOP-92 NSCLC
  GI50: 111 nM
  TGI: 542 nM
HS 578T breast
  GI50: 344 nM
  TGI: 2850 nM
HT29 colon
  GI50: 1400 nM
  TGI: 5830 nM
IGROV1 ovarian
  GI50: 965 nM
  TGI: 5930 nM
K-562 leukemia
  GI50: 126 nM
  TGI: 6810 nM
KM12 colon
  GI50: 862 nM
  TGI: 2660 nM
LOX IMVI melanoma
  GI50: 967 nM
  TGI: 2900 nM
M14 melanoma
  GI50: 851 nM
  TGI: 2440 nM
MALME-3M melanoma
  GI50: 789 nM
  TGI: 2190 nM
MCF7 breast
  GI50: 228 nM
  TGI: 5390 nM
MDA-MB-231 breast
  GI50: 460 nM
  TGI: 3070 nM
MDA-MB-435
  GI50: 1060 nM
  TGI: 4110 nM
MOLT-4 leukemia
  GI50: 903 nM
  TGI: 3200 nM
NCI-H226 lung
  GI50: 917 nM
  TGI: 2680 nM
NCI-H23 lung
  GI50: 265 nM
  TGI: 4060 nM
NCI-H460 lung
  GI50: 361 nM
  TGI: 2570 nM
NCI-H522 lung
  GI50: 167 nM
  TGI: 1720 nM
NCI/ADR-RES ovarian
  GI50: 221 nM
  TGI: 5820 nM
OVCAR-3 ovarian
  GI50: 315 nM
  TGI: 5500 nM
OVCAR-4 ovarian
  GI50: 1310 nM
  TGI: 7410 nM
OVCAR-5 ovarian
  GI50: 2010 nM
  TGI: 7910 nM
OVCAR-8 ovarian
  GI50: 192 nM
  TGI: 6450 nM
PC-3 prostate
  GI50: 171 nM
  TGI: 5090 nM
RPMI-8226 leukemia
  GI50: 204 nM
  TGI: 1190 nM
RXF 393 renal
  GI50: 226 nM
  TGI: 1670 nM
SF-268 CNS
  GI50: 180 nM
  TGI: 4140 nM
SF-295 CNS
  GI50: 607 nM
  TGI: 1960 nM
SF-539 CNS
  GI50: 749 nM
  TGI: 2720 nM
SK-MEL-2 melanoma
  GI50: 360 nM
  TGI: 2350 nM
SK-MEL-28 melanoma
  GI50: 392 nM
  TGI: 2130 nM
SK-MEL-5 melanoma
  GI50: 265 nM
  TGI: 941 nM
SK-OV-3 ovarian
  GI50: 1540 nM
  TGI: 4660 nM
SN12C renal
  GI50: 153 nM
  TGI: 3310 nM
SNB-19 CNS
  GI50: 565 nM
  TGI: 6620 nM
SNB-75 CNS
  GI50: 496 nM
  TGI: 1740 nM
SR leukemia
  GI50: 256 nM
  TGI: 2990 nM
SW-620 colon
  GI50: 298 nM
  TGI: 4150 nM
T-47D breast
  GI50: 147 nM
  TGI: 1530 nM
TK-10 renal
  GI50: 560 nM
  TGI: 5280 nM
U251 CNS
  GI50: 500 nM
  TGI: 5760 nM
UACC-257 melanoma
  GI50: 1120 nM
  TGI: 3590 nM
UACC-62 melanoma
  GI50: 355 nM
  TGI: 1420 nM
UO-31 renal
  GI50: 818 nM
  TGI: 2210 nM

Reference: PubChem BioAssay (NCI)
